“Also recorded” adds a separate entry of the source.
Assays:
[1] = test system: melanopsin transduction cascade; experiment: Properties of the melanopsin transduction cascade: drug effects on light evoked current; format: cell-based, mouse; settings: for effect on light induced current / effect on light evoked current / effect on photoresponses: 420 nm 10 sec; for effect on light induced current / effect on light evoked current / effect on photoresponses / effect on light evoked currents: 9-cis retinal 20 μM; for effect on light evoked currents: 420 nm 10 sec 8×10^14 photons/cm^2/s
Experimental: (§1) Mouse Neuro-2a cells (American Type Culture Collection; Cat no. CCL-131) were maintained at 37° C. in D-MEM, Dulbecco's Modified Eagle Medium with GlutaMAX™ I, 4500 mg/l D-Glucose, Sodium Pyruvate (D-MEM, Invitrogen) with 10% foetal bovine serum, 1% non-essential amino acids and 20 μg/ml gentomycin in a 5% CO2 atmosphere. Cells were trypsintsed, split and cultured at 1×10^5/ml in 90 mm dishes for 24 hours prior to transfection with plasmid vectors using lipofectamine (Invitrogen) in serum-free medium. DNA to lipid ratio was 10 μg DNA: 100 μg lipid. After transfection serum free medium was replaced with normal medium. On the following day, 2-3 days before study, cell differentiation was induced using 10 μM retinoic acid (Provencio et al., 2000). Starting from this point cells were kept in darkness. On the day of recording, glass coverslips serving as a substrate for cell attachment were transferred to the recording chamber. The perfusion solution contained 140 mM NaCl, […], 1 mM MgCl2, 2 mM CaCl2, 5 mM glucose, 10 mM HEPES (pH 7.3-7.4; 24° C.). Successfully transfected cells were identified by EGFP fluorescence under a 480 nm stimulus light using an OLYMPUS BX51WI microscope. At this point, retinal isoforms (20 μM; 9-cis and all-trans from Sigma-Aldrich; 11-cis from Dr R K Crouch, Medical University of S.C.) were added to the perfusion solution as necessary and cells kept in the dark for at least 1 hour before recording. Whole-cell patch-clamp recordings were made with pipettes containing 140 mM KCl, 10 mM NaCl, 1 mM MgCl2, 10 mM HEPES, 10 mM EGTA. Osmolarity was adjusted to 285±5 mosmol (milliosmol) 1^−1 and pH to 7.3-7.4 with KOH. Open pipette resistance was 2-5 MΩ (mega-ohms), and access resistance during recordings was <20 MΩ. Currents were recorded (Axopatch 200B, Axon Instruments) in neurons voltage clamped at holding potentials of −50 mV (milli-volt). The records were filtered at 1 kHz (kilohertz) and sampled at 20 kHz. Drugs were obtained from Sigma Aldrich, with the exception of NEM (N-ethylmaledomide) (Calbiochem), and DL-AP5, NF023, KT5720, U73122 and thapsigargin (all Tocris Cookson), drugs applied in superfusion were applied for 15-20 minutes prior to light stimulation.
(§2) Light stimuli were generated using a Cairn Optoscan Xenon arc source comprising a slit monochromator. Unless otherwise stated al stimuli were 10 sec in duration with a 20 nm half-bandwidth. Irradiance was measured using an optical powermeter (Macam Photometrics) and converted to photon flux. […] The nature of glutamate receptor expression in Neuro-2a cells remains ambiguous, nonetheless we excluded the possibility that this might be the origin of the melanopsin light response by application of the selective NMDA antagonist APV (2-amino-5-phosphonovaleric acid) (100 μM) which had no effect upon the light sensitive current (data not shown)

human melanopsin = target: T1, human melanopsin (Homo sapiens, UniProt Q9UHM6); experiment: Retinaldehyde dependence of the light evoked current in melanopsin expressing cells; format: cell-based; settings: for light-induced response to 540 nm stimulation itself: 20 nm half-bandwidth; for light evoked peak inward current after retinal preloading / change in 420 nm light evoked current after 540 nm light exposure: retinal 20 μM; for light evoked peak inward current after retinal preloading: 1 hour, 420 nm, 8×10^14 photons/cm^2/sec; for change in 420 nm light evoked current after 540 nm light exposure: 540 nm 10 mins (2×10^14 photons/cm^2/s), retest 420 nm 10 sec
T1 construct: expressed in transfected cells; host or cells: Mouse Neuro-2a cells (ATCC CCL-131), lipofectamine transfection with the pCMS-EGFP-based melanopsin vector, differentiated with retinoic acid
T1 sequence (Q9UHM6 1-478): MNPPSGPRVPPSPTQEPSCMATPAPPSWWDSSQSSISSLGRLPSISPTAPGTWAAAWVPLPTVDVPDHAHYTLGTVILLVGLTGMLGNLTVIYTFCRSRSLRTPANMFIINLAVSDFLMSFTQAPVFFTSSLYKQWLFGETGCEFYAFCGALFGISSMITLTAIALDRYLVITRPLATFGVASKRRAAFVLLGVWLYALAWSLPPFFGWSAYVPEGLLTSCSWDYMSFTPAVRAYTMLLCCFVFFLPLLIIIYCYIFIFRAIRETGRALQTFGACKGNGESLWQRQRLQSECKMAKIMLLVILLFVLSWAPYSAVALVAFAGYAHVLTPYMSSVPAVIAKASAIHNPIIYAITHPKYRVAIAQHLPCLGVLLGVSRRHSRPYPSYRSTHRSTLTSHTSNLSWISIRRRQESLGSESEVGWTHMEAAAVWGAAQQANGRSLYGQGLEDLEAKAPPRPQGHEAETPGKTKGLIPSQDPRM
Experimental: as §1, §2

Neuro-2a cells [2] = experiment: Spectral sensitivity of the light evoked current (pCI-neo human melanopsin); format: cell-based, mouse; settings: 11-cis retinal, mean±SEM
Experimental: For analyses of spectral sensitivity EGFP expression was excluded by employing the pCI-neo mammalian expression vector (Promega).
as §1, §2
In order to assess the correspondence, if any, between the Neuro-2a light response and these action spectra we assessed cellular responses to stimuli ranging from 300 to 540 nm in cells transfected with a pCI-neo expression vector (Promega) driving human melanopsin. EGFP was not included as a marker of expression for these experiments because of its light absorbing and fluorescent properties. […]

Neuro-2a cells [3] = experiment: Whole cell recordings of light evoked current in Neuro-2a cells expressing human melanopsin; format: cell-based, mouse
Source text: The full length coding sequence of human melanopsin was amplified from retinal cDNA using Pfu-Turbo DNA polymerase (Stratagene) and the following restriction tagged primers: […]
The product was cloned into the pLITMUS28 Vector (New England Biolabs) and sequenced to confirm that there was no deviation from the reported sequence NM_033282; SEQ ID NO: 1). The product was subsequently cloned into the pCMS-EGFP vector (BD Biosciences), such that expression would be driven by the CMV immediate early promoter. A C-terminal 6×His-tagged melanopsin construct was generated in a similar manner, using the following primers: […]
as §1, §2

NC(CCCP(=O)(O)O)C(=O)O (racemic) [APV, 2-amino-5-phosphonovaleric acid]
effect upon the light sensitive current ([1]; 100 μM, data not shown): no effect

Nc1nc2c(nc(Br)n2[C@@H]2O[C@@H]3COP(=O)(O)O[C@H]3[C@H]2O)c(=O)[nH]1 [8-Br-cGMP]
effect on light response ([1]; 1 mM in pipette): abolished
effect on light induced current ([1]; in patch pipette, 100 μM and 1 nM): dose dependent suppression

CC1=C(/C=C/C(C)=C\C=C\C(C)=C\C=O)C(C)(C)CCC1 [9-cis retinal]
light-induced response to 540 nm stimulation itself (human melanopsin): did not in itself evoke
light evoked peak inward current after retinal preloading (human melanopsin): Significant photosensitivity
light evoked peak inward current after retinal preloading (human melanopsin; listed as 9-cis-retinal): more responsive
change in 420 nm light evoked current after 540 nm light exposure (human melanopsin): only a small potentiation

CC1=C(/C=C/C(C)=C/C=C/C(C)=C/C=O)C(C)(C)CCC1 [11-cis retinal]
light evoked peak inward current after retinal preloading (human melanopsin): Significant photosensitivity; also recorded: significantly more effective
light evoked peak inward current after retinal preloading (human melanopsin; listed as 11-cis-retinal): more responsive

[Cd+2] [Cd^2+]
effect on light evoked current ([1]; 100 μM, and/or removal of calcium from perfusate): little significant effect

Nc1nc2c(ncn2[C@@H]2O[C@H](COP(=O)(O)OP(=O)(O)OP(O)(O)=S)[C@@H](O)[C@H]2O)c(=O)[nH]1 [GTPγS]
effect on photoresponses ([1]; 1 mM in patch pipette): largely abolished; also recorded: abolish

CCCCCCOC(=O)[C@]1(O)C[C@@H]2O[C@@]1(C)n1c3ccccc3c3c4c(c5c6ccccc6n2c5c31)C(=O)NC4 [KT5720]
effect on light induced current ([1]; 1 μM): did not affect

CCN1C(=O)C=CC1=O [NEM, N-ethylmaledomide]
effect on light evoked currents ([1]; 50 μM in bath): no effect
effect on light evoked currents ([1]; 50 μM in bath, listed as N-ethyl): did not antagonise

O=C(Nc1cccc(C(=O)Nc2ccc(S(=O)(=O)O)c3cc(S(=O)(=O)O)cc(S(=O)(=O)O)c23)c1)Nc1cccc(C(=O)Nc2ccc(S(=O)(=O)O)c3cc(S(=O)(=O)O)cc(S(=O)(=O)O)c23)c1 [NF023]
effect on light evoked currents ([1]; up to 1 μM in bath): no effect; also recorded: did not antagonise

Cn1cc(C2=C(c3cn(CCCSC(=N)N)c4ccccc34)C(=O)NC2=O)c2ccccc21 [RO31-8220]
effect on light induced current ([1]; 100 nM): did not affect

COc1ccc2c(c1)CC[C@@H]1[C@@H]2CC[C@]2(C)[C@@H](NCCCCCCN3C(=O)C=CC3=O)CC[C@@H]12 [U73122]
effect on light induced current ([1]; 50 μM): did not affect; also recorded: did not block

CC1=C(/C=C/C(C)=C/C=C/C(C)=C/C=O)C(C)(C)CCC1 [all-trans retinal]
light-induced response to 540 nm stimulation itself (human melanopsin): did not in itself evoke
light evoked peak inward current after retinal preloading (human melanopsin): modest light response
change in 420 nm light evoked current after 540 nm light exposure (human melanopsin): large increase; also recorded: three-fold increase

Cc1ccc(C(=O)Nc2ccc(S(=O)(=O)O)c3cc(S(=O)(=O)O)cc(S(=O)(=O)O)c23)cc1NC(=O)c1cccc(NC(=O)Nc2cccc(C(=O)Nc3cc(C(=O)Nc4ccc(S(=O)(=O)O)c5cc(S(=O)(=O)O)cc(S(=O)(=O)O)c45)ccc3C)c2)c1 [suramin]
effect on photoresponses ([1]; 100 μM in bath): largely abolished; also recorded: abolish

C/C=C(/C)C(=O)O[C@H]1C(C)=C2[C@H]([C@@H]1OC(=O)CCCCCCC)[C@@](C)(OC(C)=O)C[C@H](OC(=O)CCC)[C@@]1(O)[C@H]2OC(=O)[C@@]1(C)O [thapsigargin]
effect on light evoked current ([1]; 5 to 10 μM in zero calcium perfusates for 15-20 mins): abolished

B1: human melanopsin: opsin photoactivator, SEQ ID NO:2, expressed from CMV-driven plasmid vector in Neuro-2a cells (protein, listed as Homo sapiens)
chain: MNSGRVSTSCMATASWWDSSSSSSGRSSTAGTWAAAWVTVDVDHAHYTGTVVGTGMGNTVYTCRSRSRTANMNAVSDMSTAVTSSYKWGTGCYACGAGSSMTTAADRYVTRATGVASKRRAAVGVWYAAWSGWSAYVGTSCSWDYMSTAVRAYTMCCVYCYRARTGRATGACKGNGSWRRSCKMAKMVVSWAYSAVAVAAGYAHVTYMSSVAVAKASAHNYATHKYRVAAHCGVGVSRRHSRYSYRSTHRSTTSHTSNSWSRRRSGSSVGWTHMAAAVWGAAANGRSYGGDAKARGHATGKTKGSDRM
modifications: Human melanopsin
light evoked current (Neuro-2a cells [2]; 360 nm, 3×10^14 photons/cm^2/s): 72.5±19 pA
light evoked current (Neuro-2a cells [2]; 420 nm, 8×10^14 photons/cm^2/s): 80±11 pA
light evoked current (Neuro-2a cells [2]; 440 nm, 2×10^15 photons/cm^2/s): 32.7±14 pA
light evoked current (Neuro-2a cells [2]; 490 nm): 8.5±1.2 pA
light evoked current (Neuro-2a cells [2]; 540 nm, 2×10^14 photons/cm^2/s): 2.0±1.2 pA
light evoked current, intensity dependence (Neuro-2a cells [3]; 420 nm, 10 sec, 8×10^13 or 8×10^14 photons/cm^2/sec, whole cell recording): intensity dependent sustained inward current
cellular response to light exposure (Neuro-2a cells [3]; Neuro-2a cells expressing human melanopsin, 9-cis retinal 20 μM, 1 hour, 420 nm, 10 sec stimulus): marked cellular response
light sensitivity (Neuro-2a cells [3]; absence of exogenous retinal): not light sensitive
reversal potential of the response (Neuro-2a cells [3]; light-activated current, Neuro-2a cells): 0 to −10 mV
peak light evoked slope conductance (Neuro-2a cells [3]; voltage ramp −100 to +100 mV, linear between −100 and −50 mV, 9-cis retinal, mean±SEM, n=13): 6.46±0.82 nS

— patent US20090208462A1, “Methods of Treatment” (IMPERIAL INNOVATIONS LIMITED, priority 2004, published 2009)
